Source: patent publication US7906488B2, “Sphingolipids in treatment and prevention of steatosis and of steatosis or of hepatotoxicity and its sequelae” (Nederlandse Organisatie Voor …, priority 2004, dated 2011)

Experiments:
APOE3*Leiden (E3L) mice = assay: High fat high cholesterol diet feeding for 16 weeks (Example 1); format: in vivo
Procedure: Forty-five female heterozygous APOE3*Leiden […]) mice were fed a high fat and high cholesterol diet for four weeks (week -4 to 0). The mice were housed during the experiment in clean-conventional animal rooms (relative humidity 50-60%, temperature 21° C., light cycle 6 am to 6 pm). Mice were supplied with food and acidified tap water ad libitum. At week 0, the mice were randomized on the basis of plasma total triglyceride and cholesterol levels into a control group of fifteen mice and two treatment groups of fifteen mice. The groups were: • 1. high fat, high cholesterol diet only • 2. high fat, high cholesterol diet plus 0.7% (w/w) phytosphingosine • 3. high fat, 'high' cholesterol diet with a reduced cholesterol content, resulting in about the same plasma cholesterol level as was obtained in group 2. The treatment was continued for 16 weeks. During the treatment period, tail blood samples were obtained at week 0, 2, 4, 8, 12, and 16 to measure plasma cholesterol and triglyceride levels and to determine plasma lipoprotein composition. After sixteen weeks, mice were autopsied, liver weight was determined. Body weight and food consumption were determined every four weeks Dietary ingredients were provided by Hope Farms (Woerden, the Netherlands). For group 1 (high cholesterol), the hypercholesterolemic Western-type diet (W-diet) described by Nishina et al (J. Lipid Res. 1990; 31:859) was supplemented with cholesterol (0.5% w/w, final concentration) and with sodium cholate (0.05% w/w, final concentration). This powdered Western-type diet was mixed with 2% agar and freeze-dried as pellets. The diet for group 2 (treatment group) was prepared by the addition of 0.7% (w/w) phytosphingosine to the same powdered Western-type diet (i.e. also supplemented with cholesterol (0.5% w/w, final concentration) and sodium cholate (0.05% w/w, final concentration)). The supplemented diet mixture was mixed with 2% agar and freeze-dried as pellets. The diet W for group 3 (low cholesterol) contained 0.1% cholesterol, and 0.05% sodium cholate (w/w, final concentration). This powdered Western-type diet was mixed with 2% agar and freeze-dried as pellets. The diets were prepared every eight weeks, and stored in the dark at -20° C. Food was given ad libitum. Total cholesterol was measured using the kit Chol R1 from Roche. Total triglycerides were measured using the kit Triglycerides GPO-PAP from Roche. ALAT was measured by dry chemistry on a Reflotron (Roche).

APOE*3Leiden mice [1] = assay: Hepatic VLDL-TG production, apoB production and VLDL composition (Triton WR1339 method); format: in vivo; conditions: 1% PS diet
Procedure: (§1) Plasma parameters: Tail blood samples were collected in EDTA-coated cups, or in paraoxon-coated capillaries to prevent lipolysis as described in Zambon et al. 1993 (Zambon et al. 1993. J. Lipid Res. 34:1021-1028). Plasma lipid parameters were determined using commercial kits for total cholesterol (C) Chol R1 from Roche Diagnostics, Mannheim, Germany), non-esterified free fatty acids (FFA) (NEFA-C; Wako chemicals, Neuss, Germany), Total triglycerides (TG) (Triglyceride GPO-Trinder; Sigma, St. Louis, Mo.), β-hydroxybutyrate (β-HB; Sigma) and ALAT (Reflotron GPT; Roche). Serum amyloid A (SAA) was measured by ELISA (Biosource, Nivelles, Belgium) and fibrinogen by sandwich ELISA, as described in Koopman et al., 2005 (Koopman et al. 2005. Fibrinol Proteol 11:19). For lipoproteins fractionation, groupwise-pooled plasma was size-fractionated by fast protein liquid chromatography (FPLC) on a Superose 6 column (Äkta; Amersham Pharmacia Biotech, Uppsala, Sweden). Fractions were assayed for total C and TG as described. Hepatic VLDL-TG production: The rate of hepatic VLDL-TG production, de novo apoB secretion, and VLDL composition were determined in overnight-fasted mice. Mice were anaesthetized with vetranquil/fentanyl/midazolam i.p., and injected i.v. with 0.1 ml PBS containing 100 μCi Tran^35S-label™ (ICN Biomedicals, Irvine, Calif.) to measure the de novo apoB synthesis. After 30 min, the animals received a Triton WR1339 injection (Tyloxapol, Sigma; 500 mg/kg body weight in 100 μl saline) to prevent systemic lipolysis of newly-secreted hepatic VLDL-TG (Aalto-Setala et al. 1992. J. Clin. Invest 90:1889-1900.27) Blood samples were drawn at 0, 15, 30, 60, and 90 min after Triton WR1339 injection and plasma TG concentrations were determined. After 90 min, the animals were sacrificed and blood was collected by retro-orbital bleeding for isolation of VLDL. VLDL composition: VLDL particles (d<1.019) were separated from other lipoproteins in plasma by density gradient ultra-centrifugation, as described in Jong et al., 1996 (Jong et al. 1996. Arterioscler. Thromb. Vasc. Biol. 16:934-940). Protein content of the VLDL fraction was determined by Lowry's assay (Lowry et al., 1951. J. Biol. Chem. 193:265-275), and TG and total C were determined as described above. Phospholipids and free cholesterol were determined using standard commercial kits (Wako Chemicals, Neuss, Germany). The ^35S-apoB content of VLDL was measured after selective precipitation of apoB with isopropanol as described elsewhere (Li et al. 1996 J. Lipid Res. 37:210-220; Pietzsch et al. 1995. Biochim. Biophys. Acta 1254:77-88). In vivo clearance of VLDL-like TG-rich particles: To determine whether 1% PS accelerates the clearance of TG-rich lipoproteins from plasma, we used radiolabeled emulsion particles as a tool. VLDL-like emulsion particles containing 200 μCi of [^3H]triolein and 20 μCi of [^14C]cholesteryl oleate were prepared and characterized as described in Rensen et al. 1997 (Rensen et al., 1997. J. Lipid Res. 38:1070-1084). Fed mice were anaesthetized as described above and laparotomy was performed. […] After taking the last liver and blood sample, the remainder of the liver, heart, spleen, hind limb muscle, and gonadal, perirenal and intestinal white adipose tissues were harvested. Lipids were extracted overnight at 60° C. in 500 μL of Solvable™, and radioactivity was counted as described in Rensen et al., 1997 (supra). RNA isolation and RT-PCR: Livers from 4 h-fasted mice fed 1% PS-containing diet or control Western-type diet for 5 weeks were removed immediately after sacrifice, flushed with cold 0.9% NaCl and snap frozen in liquid nitrogen. Total RNA was isolated as described by Chomczynski and Sacchi (Chomczynski, P. and Sacchi, N. 1987. Anal. Biochem. 162:156-159) by use of RNA-Bee™ (Campro Scientific, Berlin, Germany). cDNA synthesis was performed according to Bloks et al (Bloks et al., 2001. J. Lipid Res. 42:41-50). […]

APOE*3Leiden mice [2] = assay: In vivo clearance of VLDL-like TG-rich emulsion particles; conditions: 1% PS diet
Procedure: as §1, with “(supra).” for “(supra). RNA isolation and RT-PCR: Livers from 4 h-fasted mice fed 1% PS-containing diet or control Western-type diet for 5 weeks were removed immediately after sacrifice, flushed with cold 0.9% NaCl and snap frozen in liquid nitrogen. Total RNA was isolated as described by Chomczynski and Sacchi (Chomczynski, P. and Sacchi, N. 1987. Anal. Biochem. 162:156-159) by use of RNA-Bee™ (Campro Scientific, Berlin, Germany). cDNA synthesis was performed according to Bloks et al (Bloks et al., 2001. J. Lipid Res. 42:41-50).”

[3] = week 16, 0.7% (w/w) phytosphingosine in high fat, high cholesterol diet
[4] = week 16, 0.7% phytosphingosine, p<0.001

## CCCCCCCCCCCCCC[C@@H](O)[C@@H](O)[C@@H](N)CO [PS, phytosphingosine]
APOE3*Leiden (E3L) mice; 0.7% phytosphingosine, 16 weeks
  Body weight and food intake between the three groups: did not differ
APOE3*Leiden (E3L) mice; [3]
  Final mean body weight: 22.1 gram
  Final mean liver weight: 1.34 gram
  Final mean plasma ALAT values: 82 U/L
APOE3*Leiden (E3L) mice; [4]
  ALAT compared with high cholesterol group: significantly lower
  Liver weight compared with high cholesterol group 1: significantly lower
APOE*3Leiden mice [1]; 5 weeks
  VLDL particle composition: phospholipid: 7.57 ± 1.13 μmol/mg VLDL protein
  VLDL particle composition: total cholesterol: 11.94 ± 2.16 μmol/mg VLDL protein
  VLDL particle composition: triglycerides: 36.93 ± 7.17 μmol/mg VLDL protein
  VLDL total cholesterol, % Δ vs control: −51%
  apoB production rate, % Δ vs control: did not differ and n.s.
APOE*3Leiden mice [1]; 5 weeks, overnight-fasted
  VLDL-TG production rate: 3.63 ± 0.52 μmol TG/h
  apoB production rate: 13.47 ± 2.45 ×10^4 dpm/ml/h
APOE*3Leiden mice [1]; p<0.05
  Decrease of total C in VLDL particles vs control: 51%
APOE*3Leiden mice [2]
  Uptake of [^14C]cholesteryl oleate or [^3H]TG-derived radioactivity by peripheral muscle and adipose tissues: No effects
APOE*3Leiden mice [2]; 5 weeks, fed mice
  Plasma clearance of [^14C]cholesteryl oleate, t1/2: 39.5 ± 5.3 min
  Serum clearance of [^3H]TG, t1/2: 4.7 ± 0.3 min
APOE*3Leiden mice [2]; at 10 min and 20 min after injection
  [^3H]TG uptake in the liver: increased significantly
APOE*3Leiden mice [2]; at 20 min
  Liver uptake of [^14C]cholesteryl oleate, change vs control: +60%
